Experimental data reported in patent US20040157910A1, “Method of treatment or prophylaxis” (SmithKline Beecham Corporation, priority 2003, published 2004).
Counter-ions that a name gives are not always drawn.

How the values were obtained:
[1] = tested on: Restless Legs Syndrome; settings: RLS, cited from earlier work
[2] = tested on: Restless Legs Syndrome; test: RLS patients treated with ropinirole (patient reports); type: in vivo, human; settings: almost at once
[3] = tested on: Restless Legs Syndrome; settings: RLS; well controlled studies prior to 1987; cited from earlier work

N[C@@H](Cc1ccc(O)c(O)c1)C(=O)O [L-dopa]
time for which the effect has been maintained ([1]; L-dopa): 2 years | patients in whom treatment was effective ([1]; doses of L-dopa of 100 mg to 200 mg): 70 % of patients

CCCN(CCC)CCc1cccc2c1CC(=O)N2 [ropinirole, 4-[2-(di-n-propylamino)ethyl]-1,3-dihydro-2H-indolin-2-one hydrochloride]
improvement in condition reported by RLS patients [2]: dramatic improvement

NC(=O)N1c2ccccc2C=Cc2ccccc21 [carbamazepine]
efficacy compared with placebo [3]: superior to placebos

O=C1CN=C(c2ccccc2Cl)c2cc([N+](=O)[O-])ccc2N1 [clonazepam]
efficacy compared with placebo [3]: superior to placebos
